Assay results: PubChem BioAssay (NCI)
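Step 1: Grow cells in 96-well plates. Step 2: Expose to compound for 48 hours at 5 concentrations. Step 3: Interpolate endpoints linearly; if unreached, use highest concentration. At the TGI there is no net growth.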

Tests used:
Assay in all cases: inhibition of tumour cell growth, NCI panel, 48 h
SW-620 colon = tested on: SW-620 colon
SR leukemia = tested on: SR leukemia
UACC-62 melanoma = tested on: UACC-62 melanoma
M14 melanoma = tested on: M14 melanoma
T-47D breast = tested on: T-47D breast
MDA-MB-435 = tested on: MDA-MB-435
RXF 393 renal = tested on: RXF 393 renal
HOP-62 NSCLC = tested on: HOP-62 NSCLC
SK-MEL-2 melanoma = tested on: SK-MEL-2 melanoma
SF-295 CNS = tested on: SF-295 CNS
HCT-15 colon = tested on: HCT-15 colon
HL-60(TB) leukemia = tested on: HL-60(TB) leukemia
MCF7 breast = tested on: MCF7 breast
MOLT-4 leukemia = tested on: MOLT-4 leukemia
MALME-3M melanoma = tested on: MALME-3M melanoma
A498 renal = tested on: A498 renal
MDA-N = tested on: MDA-N
NCI-H460 lung = tested on: NCI-H460 lung
UO-31 renal = tested on: UO-31 renal
RPMI-8226 leukemia = tested on: RPMI-8226 leukemia

SMILES | TGI (SW-620 colon) [µM] | TGI (SR leukemia) [µM] | TGI (UACC-62 melanoma) [µM] | TGI (M14 melanoma) [µM] | TGI (T-47D breast) [µM] | TGI (MDA-MB-435) [µM] | TGI (RXF 393 renal) [µM] | TGI (HOP-62 NSCLC) [µM] | TGI (SK-MEL-2 melanoma) [µM] | TGI (SF-295 CNS) [µM] | TGI (HCT-15 colon) [µM] | TGI (HL-60(TB) leukemia) [µM] | TGI (MCF7 breast) [µM] | TGI (MOLT-4 leukemia) [µM] | TGI (MALME-3M melanoma) [µM] | TGI (A498 renal) [µM] | TGI (MDA-N) [µM] | TGI (NCI-H460 lung) [µM] | TGI (UO-31 renal) [µM] | TGI (RPMI-8226 leukemia) [µM]
CC(C)(C)C(=O)Oc1ccc(/C=C/C(=O)c2ccc(OC(=O)C(C)(C)C)cc2)cc1 | > 100 | 76.4 | > 100 | > 100 | > 100 | > 100 | 87.3 | > 100 | > 100 | > 100 | > 100 | 75.5 | > 100 | 53.2 | > 100 | > 100 | > 100 | > 100 | – | –
CCC(=O)N/S(=N/S(=O)(=O)c1ccccc1)C(Cl)(Cl)Cl (configuration not stated) | > 100 | > 100 | > 100 | > 100 | > 100 | > 100 | > 100 | > 100 | > 100 | > 100 | > 100 | > 100 | > 100 | > 100 | > 100 | > 100 | > 100 | > 100 | > 100 | > 100
Cc1ccc(-c2c(-c3ccccc3)[nH]c(C)c2C(=O)ONC(=O)c2ccccc2)cc1 | 41.8 | 5.36 | 22.2 | 18 | 19.9 | 5.49 | 5.83 | 4.66 | 16.2 | 4.17 | 24.1 | 2.02 | 17.3 | 7.73 | 24.7 | 25.5 | 6.12 | 5.21 | 3.86 | 29.5
Cc1ccc(O)c(C2=CC3=NNC(=O)C3C(c3cccc(Cl)c3)C2)c1 (configuration not stated) | > 100 | > 100 | 86.6 | > 100 | > 100 | > 100 | 9.62 | > 100 | 86.2 | > 100 | > 100 | > 100 | 47.1 | > 100 | 94 | > 100 | 92.2 | > 100 | > 100 | 75.9
COc1cc(/C=C2\C[C@H]3[C@@H]4CCC5=CC(=O)CC[C@]5(C)[C@H]4CC[C@]3(C)C2=O)cc(OC)c1OC | > 100 | > 100 | > 51.4 | > 42.5 | 9.09 | > 39.4 | > 100 | > 66.9 | > 59.8 | > 100 | > 100 | 7.55 | > 100 | > 100 | > 100 | > 100 | > 63.6 | > 100 | > 100 | 9.7
C=C1C[C@@H](O)[C@@H](Br)C(C)(C)[C@@]12C=CC(=O)CC2 | > 100 | > 100 | > 100 | > 100 | > 100 | > 100 | > 100 | > 100 | > 100 | > 100 | > 100 | > 100 | > 100 | > 100 | > 100 | > 100 | > 100 | > 100 | > 100 | > 100
COc1c2c(nc3ccccc13)-c1cc(C(CC(=O)OC(C)(C)C)C(=O)OC(C)C)c(CO)c(=O)n1C2 (configuration not stated) | > 100 | > 100 | 98.3 | > 100 | > 100 | > 100 | > 100 | > 100 | > 100 | > 100 | > 100 | > 100 | 19.3 | > 100 | > 100 | > 100 | > 100 | > 86.1 | > 89.5 | > 100
O=C1C[C@@]23CCC4(CC2CCC[C@H]3O1)OCCO4 (some centres not stated) | > 100 | > 100 | > 100 | > 100 | > 100 | > 100 | > 100 | > 100 | > 100 | > 100 | > 100 | > 100 | > 100 | > 100 | > 100 | > 100 | > 100 | > 100 | – | > 100
Nc1ccccc1C#CC(=O)c1cccc(C(F)(F)F)c1 | 5 | > 100 | 3.85 | 5.1 | > 100 | 6.65 | 5.07 | 27.9 | 2.54 | 34.1 | – | 41.1 | 9.91 | – | 22.1 | 32.5 | 10.6 | 47.6 | 2.55 | 5.4
O=C(/C=C1\Sc2ccccc2N=C1CC(=O)c1ccccc1)c1ccccc1 | 22.5 | 16 | – | 36.4 | 75.5 | 29.6 | > 100 | 19.8 | 87.2 | 24.7 | > 100 | 22.3 | > 100 | 24.7 | 23 | > 100 | > 100 | 27.5 | 31.5 | 26.3
N#CC1=C(N)N(/N=C/c2ccccc2)C(c2ccccc2)C1(C#N)C#N (configuration not stated) | 14.5 | 8.5 | 29.5 | 42.8 | 24.4 | 33.7 | 9.83 | 33.1 | 34.9 | 39.5 | 18.7 | 5.47 | 58.6 | 5.5 | 4.39 | 29.3 | 30.5 | – | 29.7 | 18.5
NC(=O)CSc1c2cc(O)ccc2nc2ccc(O)cc12 | > 10 | > 10 | > 10 | > 10 | > 10 | > 10 | > 10 | > 10 | > 10 | > 10 | > 10 | > 10 | > 10 | > 10 | > 10 | > 10 | > 10 | > 10 | – | > 10
